Data from the NIST ThermoML archive (doi:10.1016/j.tca.2016.09.005).
Numbers after ± are expanded uncertainties.

Tests used:
[1] = Liquid; for speed of sound / mass density: 100 kPa; for speed of sound: Frequency=3 MHz, Sing-around technique in a fixed-path interferometer; for mass density: Vibrating tube method; for vapor or sublimation pressure: Closed cell (Static) method
[2] = refractive index (Na D-line) (dimensionless); conditions: 293.15 K; 101.33 kPa; Liquid; Standard Abbe refractometry
[3] = xn = mol fraction of the nth substance listed; conditions: 100 kPa, Liquid, x1 = 1; for speed of sound: Frequency=3 MHz, Sing-around technique in a fixed-path interferometer; for mass density: Vibrating tube method

| SMILES | speed of sound ([1]; 283.15 K) | mass density ([1]; 283.15 K) | speed of sound ([1]; 293.15 K) | mass density ([1]; 293.15 K) | speed of sound ([1]; 303.15 K) | mass density ([1]; 303.15 K) | speed of sound ([1]; 313.15 K) | mass density ([1]; 313.15 K) | refractive index [2] | mass density ([3]; 283.15 K) | speed of sound ([3]; 313.15 K) | other results |
| --- | --- | --- | --- | --- | --- | --- | --- | --- | --- | --- | --- | --- |
| OCCCO [propan-1,3-diol] | 1659.5 ± 2.6 m/s | 1058.85 ± 1.3 kg/m3 | 1636.3 ± 2.6 m/s | 1052.61 ± 1.2 kg/m3 | 1613.6 ± 2.6 m/s | 1046.36 ± 1.2 kg/m3 | 1591.1 ± 2.6 m/s | 1040.07 ± 1.2 kg/m3 | 1.4393 ± 0.001 | – | – | – |
| CCO [ethanol] + OCCCO | – | – | – | – | – | – | – | – | – | 798.22 ± 0.93 kg/m3 | 1094.6 ± 1.9 m/s | speed of sound ([3]; 283.15 K): 1196.8 ± 1.9 m/s; speed of sound ([3]; 293.15 K): 1162.3 ± 1.9 m/s; mass density ([3]; 293.15 K): 789.7 ± 0.93 kg/m3; speed of sound ([3]; 303.15 K): 1128.2 ± 1.9 m/s; mass density ([3]; 303.15 K): 781.09 ± 0.93 kg/m3; mass density ([3]; 313.15 K): 772.34 ± 0.93 kg/m3 |
| CO [methanol] | 1153.3 ± 1.7 m/s | 800.67 ± 0.91 kg/m3 | 1119.6 ± 1.7 m/s | 791.28 ± 0.91 kg/m3 | 1086.6 ± 1.7 m/s | 781.84 ± 0.91 kg/m3 | 1054.2 ± 1.7 m/s | 772.3 ± 0.91 kg/m3 | 1.3285 ± 0.0009 | – | – | – |
| O [water] | – | – | – | – | – | – | – | – | 1.333 ± 0.0009 | – | – | vapor or sublimation pressure ([1]; 273.15 K): 0.593 ± 0.019 kPa; vapor or sublimation pressure ([1]; 283.15 K): 1.21 ± 0.038 kPa; vapor or sublimation pressure ([1]; 293.15 K): 2.328 ± 0.071 kPa; vapor or sublimation pressure ([1]; 303.15 K): 4.251 ± 0.13 kPa; vapor or sublimation pressure ([1]; 313.15 K): 7.411 ± 0.22 kPa; vapor or sublimation pressure ([1]; 323.15 K): 12.4 ± 0.37 kPa; vapor or sublimation pressure ([1]; 333.15 K): 20 ± 0.6 kPa; vapor or sublimation pressure ([1]; 343.15 K): 31.21 ± 0.94 kPa; vapor or sublimation pressure ([1]; 353.15 K): 47.3 ± 1.4 kPa; vapor or sublimation pressure ([1]; 363.15 K): 69.77 ± 2.1 kPa |
| CCO [ethanol] | 1196.8 ± 1.9 m/s | 798.22 ± 0.93 kg/m3 | 1162.3 ± 1.9 m/s | 789.7 ± 0.93 kg/m3 | 1128.2 ± 1.9 m/s | 781.09 ± 0.93 kg/m3 | 1094.6 ± 1.9 m/s | 772.34 ± 0.93 kg/m3 | 1.362 ± 0.001 | – | – | – |
| O [water] + OCCCO | – | – | – | – | – | – | – | – | – | 999.68 ± 0.9 kg/m3 | 1529.2 ± 1.7 m/s | – |
| CO [methanol] + OCCCO | – | – | – | – | – | – | – | – | – | 800.67 ± 0.91 kg/m3 | 1054.2 ± 1.7 m/s | speed of sound ([3]; 283.15 K): 1153.3 ± 1.7 m/s; speed of sound ([3]; 293.15 K): 1119.6 ± 1.7 m/s; mass density ([3]; 293.15 K): 791.28 ± 0.91 kg/m3; speed of sound ([3]; 303.15 K): 1086.6 ± 1.7 m/s; mass density ([3]; 303.15 K): 781.84 ± 0.91 kg/m3; mass density ([3]; 313.15 K): 772.3 ± 0.91 kg/m3 |
